Laboratory results published in patent EP0719267B1, “SECOND MESSENGER CELL SIGNALING INHIBITORS” (CELL THERAPEUTICS, INC., priority 1993, dated 1994).
pIC50: −log10 of the molar value.

Key:
[1] = test system: THP-1 cell adhesion to IL-1-activated HUVEC; test: THP-1 cell adhesion to activated HUVEC; format: cell-based, human
Description: This example illustrates inhibitive activity of compounds nos. 50 and 57 on THP-1 cell adhesion to IL-1-activated HUVEC. In an investigative assay, HUVEC were stimulated with IL-1 (10 ng/ml), both in the absence and presence of varying concentrations of drugs for 8 hours in a 96-well microtiter plate. In the wellplate, human monocytic leukemia cell line THP-1 cells were added at 50,000 cells per well. The THP-1 cells were pre-incubated with BCECF, a fluorescence dye that can be used to measure cell number using a fluorescence plate reader. After 10 minutes at 37 °C, the microtiter plate was inverted and spun at 900 rpm. The remaining adhering THP-1 cells were then analyzed.
Inventive compound no. […] HUVEC were stimulated with 20 ng/ml IL-1β or 15 ng/ml TNFα for 6 hours. Fluorescence labeled (BCECF-AM) THP-1 cells were allowed to adhere to the HUVEC for 20 minutes, washed once and the amount of fluorescence remaining analyzed on a fluorescence plate reader. The results, reported in figures 62A and 62B (TNFα or IL-1β, respectively), show inhibition of THP-1 adhesion to HUVEC.
Figures 72A and 72B illustrate that inventive compound no. 58 inhibited THP-1 cell adhesion to either TNF or IL-1-stimulated HUVEC, respectively. Procedurally, HUVEC were stimulated with TNF or IL-1 for 8 hours and THP-1 cells added for 20 minutes. The HUVEC were then washed and analyzed for adherence. Inventive compound no. 58 inhibited adhesion of THP-1 cells to HUVEC with an IC50 of approximately 1 µM for both TNF and IL-1.

[2] = test system: Balb/3T3 cells; test: PDGF-induced proliferation of Balb/3T3 cells; format: cell-based, murine
Description: Balb/3T3 cells respond vigorously to PDGF stimulation, and are useful in vitro models for further study of PDGF-induced proliferation. Disregulated PDGF-proliferative response has been linked to a variety of diseases, including, e.g., restenosis, atherosclerosis, fibrosis, and tumor cell angiogenesis. Cells were plated in low serum-containing medium for 24 hours prior to stimulation with various concentrations of inventive compound no. 45. PDGF-BB was added at constant 10 µM concentrations. Tritiated thymidine was added and cells harvested for scintillation counting 24 hours later. Figure 15 illustrates a dose response curve from this assay, including an IC50 value of approximately 0.08 µM, exemplifying inhibitory activity of the tested compound.
In another investigation similar to the Balb/3T3 proliferation assay of Example 32, IC50 and ID50 values for inventive compounds nos. 70, 45, 59 and 58 were determined. LD50 values were determined using a cytotoxicity assay, as in Example 32. In these assays, Balb/3T3 cells, stimulated with PDGF and treated with one of the above inventive compounds in a manner identical to the tritiated thymidine procedure above, were incubated instead with a viable dye BCECF, a fluorescent dye. Fluorescence was measured using a fluorescent plate reader. […] Figure 17 illustrates assay results by comparing […] value against LD50 values for the inventive compounds tested. Most compounds tested were non-cytotoxic yet were significant inhibitors of proliferation.
Inventive compounds nos. 77,7 and 78 were added at various concentrations one hour prior to PDGF stimulation. PDGF-BB was added at a constant 10 µM concentrations along with tritiated thymidine. The cells were allowed to incubate for one day, following addition of PDGF and tritiated thymidine. 24 Hours later, the cells were harvested and counted by liquid scintillation counting. Results for compounds nos.77, 7 and 78 are shown in figures 26A, 26B and 26C, respectively. Background counts were approximately 1% of control levels.
Results obtained for compound no. 50 in the PDGF-induced proliferation of Balb/3T3 cells (Example 32), reported in figure 28, illustrate the inhibitive properties of this compound on proliferation induced by PDGF, representing significant inhibition at concentrations as low as 2 µM. […] 50, are capable of reducing tumor cell growth by blocking oncogene-induced events.
Figure 66 reports that inventive compound no. 45 inhibited PDGF-induced murine BALB/3T3 proliferation. Procedurally, cells were rested overnight in 0.2% serum and stimulated with 25 ng/ml PDGF. Compound no. 45 was added 1 hour prior to stimulation. Cells were pulsed with ^3H-TdR 24 hours later and harvested for scintillation counting 4 hours later.
Figures 66A and 66B are a dose response and cytoxicity curves, respectively, for inhibition of proliferation in Balb/3T3 cells by inventive compound no. 58. In the assay protocol, cells were starved overnight in 0.5% serum containing medium, followed by stimulation with 20 ng/ml PDGF for 24 hours. The cells were labeled with ^3H-TdR for 4 hours and harvested and counted by scintillation. Figure 66B illustrates that inventive compound no.
Figure 68 illustrates an effect of the delayed addition of inventive compound no. 58 to Balb/3T3 proliferation in response to PDGF-BB. Cells were stimulated with PDGF (20 ng/ml) and inventive compound no. 58 added either simultaneous with PDGF (0) or at various times after addition of PDGF, up to 6 hours later. At 24 hours, the cells were pulsed with ^3H-TdR and counted by scintillation four hours later. […] 58 was added as late as 20 hours after PDGF.
Figure 69 illustrates that inventive compound no. […] In the assay protocol, cells were serum starved for 24 hours before adding either 20 ng/ml PDGF or 10% serum. The cells were pulsed with ^3HTdR 24 hours later. Inventive compound no.

[3] = test system: vascular cell adhesion molecule (VCAM); test: VCAM expression on TNF-stimulated HUVEC (flow cytometry); format: cell-based, human
From the text: This example illustrates an investigation of inhibition of vascular cell adhesion molecule (VCAM) expression on HUVEC by compound no. 58. VCAM expression by endothelial cells is an early event in the pathogenesis of atherogenesis and multiple sclerosis, among other various autoimmune diseases. Figure 23 is a series of frequency histograms obtained in this exemplary assay. […] In the absence of TNF, VCAM expression on HUVEC was at a very low level. […] The average increase in cell fluorescence was approximately 10-fold. The bottom panel is a frequency histogram of TNF-stimulated cells in the presence of compound no 58. […] 58.
(§1) Assay results reported in figures 63A and 63B, illustrate that inventive compound no. […] HUVEC were stimulated with TNFα (20 ng/ml) for 5 hours and stained using fluorescent antibodies to ICAM-1 or VCAM-1. Cell surface expression was analyzed by flow cytometry. All values were normalized to the peak mean fluorescence of the positive control (=100%). Average levels of induction using TNFα- stimulation were 20-fold higher for ICAM-1 and over 50-fold higher for VCAM-1 from that of nonstimulated controls, as shown in figures 63 and 63B.
(§2) Figures 73A and 73B illustrate inhibition by inventive compound no. 58 of VCAM or ICAM expression, respectively, in HUVEC activated by TNF. Cells were stimulated for 8 hours in the presence or absence of inventive compounds and stained with fluorescent antibodies to VCAM or ICAM and analyzed by flow cytometry.

[4] = test system: ICAM-1; test: ICAM expression on TNF-stimulated HUVEC (flow cytometry); format: cell-based, human
Description: as §1, §2

In the case of `CCCCCCCCNCC(O)CCCCCCCCCn1c(=O)c2c(ncn2C)n(C)c1=O` (centres unmarked) [compound no. 45], the “inhibition of THP-1 adhesion” value ([1]; 20 ng/ml IL-1β or 15 ng/ml TNFα, 6 hours) was “inhibited adhesion of monocytic leukemia cells (THP-1) to IL-1β or TNFα-activated HUVEC”, the pIC50 ([2]; Mus musculus, BALB/3T3, PDGF-BB, low serum 24 hours) was ~7.10 and the “VCAM-1 cell surface expression” value ([3]; TNFα (20 ng/ml), 5 hours) was “inhibited adhesion receptor expression on HUVEC”. For the same compound, the “ICAM-1 cell surface expression” value ([4]; TNFα (20 ng/ml), 5 hours) was “inhibited adhesion receptor expression on HUVEC”.

For `CCCCCCCCCCCCNCC(O)CCCCCCCCCn1c(=O)c2c(ncn2C)n(C)c1=O` (centres unmarked) [compound no. 50, 1-(11-Dodecylamino-10-hydroxyundecyl)-3,7-dmethylxanthine], the “inhibition of THP-1 adhesion” value ([1]; IL-1 (10 ng/ml), 8 hours) was “significantly inhibited THP-1 adhesion, even at low concentratations” and the minimal effective concentration ([2]; Mus musculus, BALB/3T3, fig. 28, read-out: concentrations giving significant inhibition) was ≥ 2 µM.

In the case of `COc1cc(CNCC(O)CCCCCCCCCn2c(=O)c3c(ncn3C)n(C)c2=O)cc(OC)c1OC` (centres unmarked) [compound no. 58, 1-[11-(3,4,5-Trimethoxybenzylamino)-10-hydroxyundecyl]-3,7-dimethylxanthine], the pIC50 ([1]; Homo sapiens, TNF-stimulated HUVEC, 8 hours) was ~6.00, the “PDGF-induced versus serum-induced proliferation” value ([2]; 20 ng/ml PDGF or 10% serum) was “inhibited PDGF- induced proliferation in Balb/3T3 cells to a greater extent than serum-induced proliferation” and the “effect on serum-induced proliferation” value ([2]; 10% serum) was “did not have a significant effect on serum-induced Balb/3T3 proliferation”. The pIC50 ([2]; Mus musculus, BALB/3T3, 20 ng/ml PDGF, 24 hours) was 6.30 to 6.70, the “inhibition with delayed addition” value ([2]; added as late as 20 hours after PDGF) was “nearly complete inhibition in proliferation” and the “factor of reduction of mean fluorescence (VCAM expression)” value ([3]; TNF 6 hours, versus TNF-stimulated cells without compound) was 8. The VCAM expression ([3]; TNF, 8 hours) was “inhibition” and the ICAM expression ([4]; TNF, 8 hours) was “inhibition”.
